From patent US20250376477A1, “ANALGESIC DELTA OPIOID RECEPTOR BITOPIC LIGANDS” (UNIVERSITY OF SOUTHERN CALIFORNIA, priority 2022, published 2025)

What was measured:
[1] = target: T1, DOR (Homo sapiens, UniProt P41143); type: cell-based; conditions: for potency at DOR: BRET based Gi-1 assay / G-protein pathways; for selectivity for DOR over other opioid subtypes: DOR vs KOR and MOR, BRET based Gi-1 assays; for G-protein bias: G-protein vs arrestin at DOR
[2] = target: T1, DOR; type: cell-based; conditions: compared to known DOR orthosteric site binders
[3] = tested on: C57BL/6J mice; experiment: Seizure assay; conditions: for seizures in seizure assay: C57BL/6J mice, sc injection, C6 quino at analgesic doses; for seizure occurrence: compared with known DOR agonists
[4] = target: KOR (Homo sapiens, UniProt P41145); experiment: BRET based Gi-1 assay, activation of KOR; type: cell-based
Sequence of KOR (P41145 whole entry): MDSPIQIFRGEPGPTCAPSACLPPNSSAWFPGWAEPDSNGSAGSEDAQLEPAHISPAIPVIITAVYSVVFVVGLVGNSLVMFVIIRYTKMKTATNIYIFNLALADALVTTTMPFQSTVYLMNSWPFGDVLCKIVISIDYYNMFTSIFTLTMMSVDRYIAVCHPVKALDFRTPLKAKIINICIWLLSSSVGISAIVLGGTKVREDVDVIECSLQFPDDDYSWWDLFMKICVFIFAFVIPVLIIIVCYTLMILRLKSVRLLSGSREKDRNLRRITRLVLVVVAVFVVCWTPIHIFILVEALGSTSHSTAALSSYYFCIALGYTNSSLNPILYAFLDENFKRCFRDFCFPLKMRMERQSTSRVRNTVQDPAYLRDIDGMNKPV

[5] = In vivo analgesia / oral activity in chronic pain models; conditions: for Orally active: oral
[6] = tested on: C57BL/6J mice; experiment: Respiratory depression; conditions: sc injection, morphine 10 mg/kg
[7] = tested on: C57BL/6J mice; experiment: Locomotor effects; conditions: sc injection, C6-quino 30 mg/kg sc
[8] = tested on: C57BL/6J mice; experiment: Rotarod assay (motor coordination); conditions: sc injection
[9] = target: T1, DOR; type: cell-based; conditions: compared to DPDPE and C5 quino
[10] = Microsomal stability; conditions: microsomes
[11] = tested on: sciatic nerve ligation; experiment: Mechanical allodynia induced by sciatic nerve ligation; type: in vivo
Protocol: Mechanical allodynia induced by sciatic nerve ligation was reduced between 20 and 140 minutes after treatment with 30 mg/kg C6-quino sc. Supraspinal (icv) antinociception mediated by C6 quino is DOR dependent, yet C6-quino produced no seizures (B, top).

[12] = target: T2, DOR (Mus musculus, UniProt P32300); type: in vivo
T2 construct: from tissue; host or cells: living animal, central nervous system (icv dosing)
T2 sequence (P32300 whole entry): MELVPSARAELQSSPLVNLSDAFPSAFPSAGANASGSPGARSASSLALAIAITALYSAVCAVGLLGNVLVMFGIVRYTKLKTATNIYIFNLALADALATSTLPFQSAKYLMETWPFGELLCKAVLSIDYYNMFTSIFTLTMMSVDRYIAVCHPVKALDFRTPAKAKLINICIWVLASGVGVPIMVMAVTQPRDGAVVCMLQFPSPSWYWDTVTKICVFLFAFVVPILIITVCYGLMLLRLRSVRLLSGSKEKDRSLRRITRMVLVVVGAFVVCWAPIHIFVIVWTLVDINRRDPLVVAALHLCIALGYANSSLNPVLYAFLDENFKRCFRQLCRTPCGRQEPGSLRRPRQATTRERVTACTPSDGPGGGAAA

[13] = target: T1, DOR; type: cell-based; conditions: compared to DPDPE and C5 quino; remark: listed apart in the source
[14] = PK assays; type: in vivo

T1 sequence (P41143 whole entry): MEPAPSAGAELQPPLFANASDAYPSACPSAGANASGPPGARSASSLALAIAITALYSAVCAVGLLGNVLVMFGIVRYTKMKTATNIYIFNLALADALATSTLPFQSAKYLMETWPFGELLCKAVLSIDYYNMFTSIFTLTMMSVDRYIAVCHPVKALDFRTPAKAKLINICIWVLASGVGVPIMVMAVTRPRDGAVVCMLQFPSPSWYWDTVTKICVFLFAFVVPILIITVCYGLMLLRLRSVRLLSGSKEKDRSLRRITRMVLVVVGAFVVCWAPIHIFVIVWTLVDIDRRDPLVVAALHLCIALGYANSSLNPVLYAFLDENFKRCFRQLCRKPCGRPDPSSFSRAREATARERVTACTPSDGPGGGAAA

Compound | potency at DOR [1] | selectivity for DOR over other opioid subtypes [1] | functional profile (potency and efficacy) across DOR G protein subtypes and βarrestin-1 and 2 [2] | seizures in seizure assay [3] | activity at KOR [4] | efficacy in chronic pain models [5] | Orally active [5] | G-protein bias [1] | seizure occurrence [3] | respiratory depression [6] | locomotor activity [7] | further results
N=C(N)NCCCCCN1CCC23c4c5ccc(O)c4O[C@H]2c2nc4ccccc4cc2C[C@@]3(O)C1C5 (stereo partly shown) [C5-Quino] | high potency | selectivity for DOR over other opioid subtypes | unique functional profiling |  |  |  |  |  |  |  |  | 
C=CCN1C[C@H](C)N([C@H](c2ccc(C(=O)N(CC)CC)cc2)c2cccc(OC)c2)C[C@H]1C [SNC80, reference compound] |  |  |  | caused seizures |  |  |  |  |  |  |  | 
N=C(N)NCCCCCN1CC[C@]23c4c5ccc(O)c4O[C@H]2c2[nH]c4ccccc4c2C[C@@]3(O)[C@H]1C5 [C5-Indole] | high potency |  |  |  | retained activity |  |  |  |  |  |  | 
N=C(N)NCCCCCCN1CCC23c4c5ccc(O)c4O[C@H]2c2[nH]c4ccccc4c2C[C@@]3(O)C1C5 (stereo partly shown) [C6-Indole] | high potency |  |  |  | retained activity | effective in chronic pain models | orally active | G-protein biased | do not cause seizures |  |  | 
CN1CC[C@]23c4c5ccc(O)c4O[C@H]2[C@@H](O)C=C[C@H]3[C@H]1C5 [Morphine, reference compound] |  |  |  |  |  |  |  |  |  | caused respiratory depression | hyperlocomotion | 
N=C(N)NCCCCCCN1CCC23c4c5ccc(O)c4O[C@H]2c2nc4ccccc4cc2C[C@@]3(O)C1C5 (stereo partly shown) [C6-Quino] | high potency | selectivity for DOR over other opioid subtypes | unique functional profiling | no seizures |  | effective in chronic pain models | orally active | G-protein biased | do not cause seizures | did not cause significant respiratory depression | did not significantly differ from the vehicle at any time point | sedation in rotarod assay [8]: no propensity to cause sedation; intrinsic efficacy at DOR, βarrestin-2 [9]: lower intrinsic efficacy; Orally active ([5]; listed as 6C-Quino): YES; intrinsic efficacy at DOR, G-protein ([1]; compared to DPDPE and C5 quino): lower intrinsic efficacy; half-life [10]: > 2 h; anti-allodynic effect in presence of NTB ([11]; antagonist NTB): antagonized by NTB; anti-allodynic activity ([11]; sciatic nerve ligation, mechanical allodynia): dose- and time-dependent anti-allodynic activity similar to gabapentin; supraspinal (icv) antinociception, receptor dependence [12]: DOR dependent; seizures ([3]; FIG. 4B top): no seizures; intrinsic efficacy at DOR, βarrestin-1 [13]: lower intrinsic efficacy; brain penetration ([14]; PK assays): good; systemic availability ([14]; PK assays): good; half-life ([14]; in vivo): 2 h
